Reference: publication PMC9071858, “Comparative Pharmacokinetics of Seven Major Compounds in Normal and Atherosclerosis Mice after Oral Administration of Simiao Yong'an Decoction” (Evidence-based Complementary and Alternative Medicine : eCAM, 2022)

Legend:
[1] = Pharmacokinetic study in normal control (NC) mice after oral administration of SMYAD; type: in vivo, mouse; conditions: NC mice, plasma, SMYAD intragastric 35 g/kg/d for seven days, mean ± SD, n = 5; for AUC(0-t) / AUC(0-inf) / Cmax / half-life / Tmax: male, C57BL/6J, mouse, po, 35 g/kg/day; for AUC(0-t): read-out: AUC0–t; for AUC(0-inf): read-out: AUC0–∞; for Cmax: read-out: C max; for half-life: read-out: t 1/2 (converted); for Tmax: read-out: t max
Method: (§1) Male C57BL/6J mice and ApoE^−/− mice on a C57BL/6 background (7 weeks old, 18–22 g) were purchased from Beijing Vital River Laboratory Animal Technology Co., Ltd. (Beijing, China, Certificate No.: SCXK (Jing) 2016-0006). All the mice were kept in an SPF animal house (Dongzhimen Hospital Affiliated to Beijing University of Chinese Medicine, Certificate No.: SYXK (Jing) 2015-0001) with food and water freely available, 12 h light/dark, and environmental conditions of 22°C–24°C, 50% relative humidity. All protocols of animal experiments were performed in accordance with the National Guidelines for Laboratory Animal Welfare and were approved by the Animal Ethics Committee of Beijing University of Chinese Medicine (NO. BUCM-4-2015071701-3001). High-fat feeding (containing 15% fat and 0.25% cholesterol) was provided by Beijing HFK bioscience CO., LTD. (Beijing, China, Certificate No.: SCXK (Jing) 2014-0018).
(§2) After successful induction of AS model, SMYAD was administered to NC and AS mice by intragastric gavage at the crude drug dose of 35 g/kg/d for seven days. Blood samples were collected from each mouse in heparinized tubes via the postorbital venous plexus veins at 0, 0.25, 0.5, 1, 2, 4, 6, 8, 10, 12, 18, and 24 h after seven days of drug administration. Then blood samples were immediately centrifuged at 3500 rpm at 4°C for 10 min and the plasma was stored at −80°C until use.
(§3) Each plasma sample (100 μL) was mixed with a threefold volume of methanol and 25 μL IS in a 1.5 mL EP tube. Then the mixture was vortexed for 100 seconds and centrifuged at 12,000 rpm for 10 min at 4°C. The supernatant was transferred to another EP tube and evaporated to dryness under a nitrogen vacuum. The residue was reconstituted with 100 μL of 50% methanol and centrifuged at 15,000 rpm for 15 min. Then the supernatant was transferred to sample vials for the LC-MS analysis.
(§4) A Vanquish UHPLC™ system (Thermo Fisher Scientific Inc., USA) was used for the analysis. Samples were separated on an Atlantis T3 column (4.6 mm × 150 mm, 3 μm; Waters, USA). The column temperature was 40°C. The mobile phase, at 0.4 mL/min, consisted of water containing 0.1% formic acid (v/v, A) and methanol (B). The quantitative analysis gradient program was as follows: 0-1 min, 0 B; 1–6 min, 0–100% B; 6–12 min, 100% B; 12–12.1 min, 100%-0 B; 12.1–15 min, 0 B. The injection volume was 5 μL.
(§5) The mass spectrometer Q Exactive HF-X (Thermo Fisher Scientific Inc., USA) system was connected to the UHPLC system via heated electrospray ionization (HESI) and controlled by Xcalibur 4.2 software (Thermo Fisher) that was used for data collection and analysis. The mass spectrometer was operated in a negative ionization mode. The MS parameters were set as follows: probe heater temperature, 350°C; capillary temperature: 320°C; sheath gas (N2) flow rate: 30 arbs; auxiliary gas (N2) flow rate: 10 arbs; spray voltage: 3.2 kV (negative); S-Lens RF level: 55 V; scan mode: full MS (resolution 12000); scan range: m/z 150–1500. The most abundant ions in the spectra were selected for sensitive quantitation ([M-H]^−of chlorogenic acid, angoroside C, liquiritin, isoliquiritigenin, and IS, [M + COOH]^− of harpagide, swertiamarin, and sweroside).
The pharmacokinetic parameters, including maximum plasma concentration (Cmax), time corresponding to Cmax (Tmax), terminal elimination half-life (T1/2), area under plasma concentration-time curve (AUC0–t) and area under the plasma concentration-time curve from 0 to infinity time (AUC0–∞), apparent volume of distribution (Vz/F) and clearance (CLz/F), were calculated using the noncompartment model in DAS 2.0 software package (Shanghai, China). GraphPad prism 6.02 (GraphPad Software, USA) was used in the statistical analysis. All values are expressed as mean ± standard error. For the pharmacokinetic parameter values of the NC and AS groups, Student's t-test was employed for data comparisons. P values <0.05 were considered statistically significant.

[2] = Stability of analytes in QC plasma samples; type: in vitro ADME, mouse; conditions: n = 5
Method: All solutions were stored at 4°C.
Stability was evaluated as five replicate QC samples at two concentration levels (see Table 5).

[3] = Pharmacokinetic study in atherosclerosis (AS) model ApoE−/− mice after oral administration of SMYAD; type: in vivo, mouse; conditions: AS mice, plasma, SMYAD intragastric 35 g/kg/d for seven days, mean ± SD, n = 5; for AUC(0-t) / AUC(0-inf) / Cmax / half-life / Tmax: male, ApoE−/− on a C57BL/6 background, mouse, po, 35 g/kg/day; for AUC(0-t): read-out: AUC0–t; for AUC(0-inf): read-out: AUC0–∞; for Cmax: read-out: C max; for half-life: read-out: t 1/2 (converted); for Tmax: read-out: t max
Method: as §1
The AS model was established by a high-fat diet and perivascular carotid collar placement (PCCP) surgery in the ApoE^−/− mice. After a 7-day adaptive feeding, the mice were given a high-fat diet for 2 weeks; before anesthesia, all ApoE^−/− mice were fasted for 12 hours. During the surgery, the right common carotid artery was exposed, and a silicone cannula (length: 2.5 mm, inner diameter: 0.3 mm) was fixed around the carotid artery (external diameter: about 0.5 mm). Penicillin was injected intraperitoneally for 3 days after surgery to prevent infection. High-fat diet continued for 8 weeks after surgery to establish AS model. Biochemical assays and hematoxylin and eosin (HE) staining were used to evaluate whether AS model was successfully established.
as §2, §3, §4
as §5, with “sweroside). […]” for “sweroside).”

[4] = high QC level (600 harpagide, 800 chlorogenic acid, 4800 swertiamarin, 1000 sweroside, 200 others ng/ml)
[5] = low QC level ([…] harpagide, 51.2 chlorogenic acid, 307.2 swertiamarin, 64 sweroside, 12.8 others ng/ml)

| CLz/F [1] | Vz/F [1] | AUC(0-t) [1] | AUC(0-inf) [1] | Cmax [1] | half-life [1] | Tmax [1] | Freeze-thaw stability 3 freeze-thaw cycles Accuracy RE [2, 4] | Freeze-thaw stability 3 freeze-thaw cycles Calc. conc. [2, 4] | Long-term stability −20°C for 30 d Accuracy RE [2, 4] | Long-term stability −20°C for 30 d Calc. conc. [2, 4] | Postpreparative stability 24 h in the autosampler (4°C) Accuracy RE [2, 4] | Postpreparative stability 24 h in the autosampler (4°C) Calc. conc. [2, 4] | Short-term stability 24 h in room temperature (20°C) Accuracy RE [2, 4] | Short-term stability 24 h in room temperature (20°C) Calc. conc. [2, 4] | Freeze-thaw stability 3 freeze-thaw cycles Accuracy RE [2, 5] | Freeze-thaw stability 3 freeze-thaw cycles Calc. conc. [2, 5] | Long-term stability −20°C for 30 d Accuracy RE [2, 5] | Long-term stability −20°C for 30 d Calc. conc. [2, 5] | Postpreparative stability 24 h in the autosampler (4°C) Accuracy RE [2, 5] | SMILES | further results |
| --- | --- | --- | --- | --- | --- | --- | --- | --- | --- | --- | --- | --- | --- | --- | --- | --- | --- | --- | --- | --- | --- |
| 495800 ± 401700 µL/min/mg | 148.22 ± 76.23 L/mg | 1730 ± 883 ng·h/mL | 1870 ± 1050 ng·h/mL | 289 ± 124 ng/mL | 7.4 ± 4.76 h | 0.85 ± 0.62 h | −1.74% | 196.52 ± 13.15 ng/mL | −10.51% | 178.97 ± 6.04 ng/mL | −7.27% | 185.46 ± 9.39 ng/mL | 1.92% | 203.84 ± 4.39 ng/mL | 5.68% | 13.53 ± 0.98 ng/mL | 1.73% | 13.02 ± 1.17 ng/mL | 1.70% | COc1ccc(CCO[C@@H]2O[C@H](CO[C@@H]3OC[C@H](O)[C@H](O)[C@H]3O)[C@@H](OC(=O)/C=C/c3ccc(O)c(OC)c3)[C@H](O[C@@H]3O[C@@H](C)[C@H](O)[C@@H](O)[C@H]3O)[C@H]2O)cc1O [Angoroside C, angoroside C] | Postpreparative stability 24 h in the autosampler (4°C) Calc. conc. [2, 5]: 13.02 ± 1.05 ng/mL; Short-term stability 24 h in room temperature (20°C) Accuracy RE [2, 5]: 4.09%; Short-term stability 24 h in room temperature (20°C) Calc. conc. [2, 5]: 13.32 ± 1.09 ng/mL; CLz/F [3]: 313200 ± 39800 µL/min/mg; Vz/F [3]: 126.00 ± 102.72 L/mg; AUC(0-t) [3]: 1840 ± 298 ng·h/mL; AUC(0-inf) [3]: 1890 ± 226 ng·h/mL; Cmax [3]: 491 ± 239 ng/mL; half-life [3]: 7.33 ± 4.68 h; Tmax [3]: 2.05 ± 1.19 h |
| 97000 ± 44000 µL/min/mg | 20.82 ± 11.26 L/mg | 5350 ± 1180 ng·h/mL | 5400 ± 1240 ng·h/mL | 1430 ± 636 ng/mL | 4.43 ± 2.06 h | 5 ± 4.97 h | 7.37% | 5153.93 ± 132.15 ng/mL | 0.75% | 4835.93 ± 153.29 ng/mL | 3.51% | 4968.64 ± 208.19 ng/mL | 9.88% | 5274.04 ± 147.92 ng/mL | −5.86% | 289.21 ± 13.27 ng/mL | 1.41% | 311.53 ± 14.38 ng/mL | −4.67% | C=C[C@H]1[C@H](O[C@@H]2O[C@H](CO)[C@@H](O)[C@H](O)[C@H]2O)OC=C2C(=O)OCC[C@]21O [Swertiamarin, swertiamarin] | Postpreparative stability 24 h in the autosampler (4°C) Calc. conc. [2, 5]: 292.85 ± 19.45 ng/mL; Short-term stability 24 h in room temperature (20°C) Accuracy RE [2, 5]: −8.88%; Short-term stability 24 h in room temperature (20°C) Calc. conc. [2, 5]: 279.92 ± 15.61 ng/mL; CLz/F [3]: 95000 ± 32200 µL/min/mg; Vz/F [3]: 55.16 ± 45.04 L/mg; AUC(0-t) [3]: 5540 ± 2010 ng·h/mL; AUC(0-inf) [3]: 7240 ± 3390 ng·h/mL; Cmax [3]: 1340 ± 603 ng/mL; half-life [3]: 5.74 ± 1.9 h; Tmax [3]: 0.9 ± 0.64 h |
